Where “and” joins values, the source holds several entries; their conditions need not be identical. Equal values may be shown once.
Columns and labels:
[1] = Biodistribution test of radioactive arsenic trioxide in rats with liver tumors (gamma counter); type: in vivo
Protocol: Hepatic Artery Injection:
The hepatic artery was dissected from the hepatic tissue of the rats by surgery. A PE-10 tube was introduced into the hepatic artery, and the test solution containing neutron-irradiated arsenic trioxide as prepared in Example 1 was injected into the hepatic artery. The PE-10 tube was removed after injection, and a surgical thread was used to bind and fix the blood vessels, followed by suturing of the wound.
The test injection solution containing neutron-irradiated arsenic trioxide as prepared in Example 1 was injected into the tail vein using a syringe with needle no. 25.
(§1) A fixed amount of radioactive arsenic trioxide (radioactivity range: 2.77˜3.25 mCi/ml, concentration: 1 mg/ml, animal injection dose: 0.45 mg/kg) prepared in Example 1 was injected into the rats with liver tumors through the hepatic artery and tail vein, respectively.
(§2) The rats were sacrificed by taking a large amount of blood from the heart at hours 2, 4, 16, 24 and 48, respectively, after injection, and the blood, hearts, lungs, livers, spleens, kidneys, intestines, bladders, muscles, and tumors were removed. These tissues or organs were placed in respective tubes, and their irradiation intensity was measured by a gamma counter (Wallac 1470 WIZARD). The content percentage of arsenic trioxide per each gram of the tissue or organ was calculated using standard curve regression. There were two or three experimented rats in each experimental group.
Some of the organs and tissues (blood, kidneys and livers) were transferred to the Institute of Nuclear Energy Research for conducting Inductively Coupled Plasma Mass Spectrometry (ICP-MAS) so as to observe the biodistribution of arsenic trioxide in the tumors and organs or tissues.

[2] = system: N1-S1 rat hepatoma liver tumors; test: Therapeutic effect assessment, hepatic artery single injection, rats with liver tumors; type: in vivo; conditions: for Therapeutic effect on the tumors: hepatic artery single injection
Source text: (§3) The tumor cells for the establishment of the animal model with liver tumor were of a rat hepatoma cell line, N1-S-1, purchased from the American Type Culture Collection (ATCC, P.O. Box 1549, Manassas, Va. 20108 USA), and were subcultured to set up a Master Cell Bank and a Working Cell Bank.
(§4) The rat hepatoma cells, N1-S1, were suspended cells that were dispersed in Iscove's Modified Dulbecco's Medium (IMDM) (GibcoBRL®) supplemented with 1% penicillin (GibcoBRL®) and 10% fetal bovine serum (GibcoBRL®), and were cultured in an incubator with 5% CO2, at 37° C.
(§5) When cultured to 1.5×10^6 cell/ml, 4×10^6 cell/0.06 ml of N1-S1 cells were sampled and then implanted into Spawn-Dawley male rats (5-week-old, 150 g) between the liver and liver capsule by surgery, and the wounds were closed by sutures. Rearing of the rats was continued for ten days, and ultrasonic scanning was used to detect any growth of liver tumor and tumor size. After scanning, animals that had developed liver tumors were used to conduct the experiments of tumor growth inhibition, and euthanasia was practiced on the rest of the rats.
The blood vessels of the hepatic artery were dissected from the hepatic tissue of the rats by surgery, and normal saline, an injection solution containing arsenic trioxide without neutron irradiation treatment (concentration: 1 mg/ml; and animal injection dosage: 0.45 mg/kg), and the injection solution prepared in Example 1 which contained radioactive arsenic trioxide having subjected to neutron irradiation treatment (radioactivity range: 2.77˜3.25 mCi/ml; concentration: 1 mg/ml; and animal injection dosage: 0.45 mg/kg dose), were injected respectively via the hepatic artery in single injections.
(§6) Before injection, the size of the liver tumors was examined by ultrasonic scanning. Ultrasonic scanning was conducted in the first week, the second week, and the fifth week, respectively, after start of the injection to observe the change in size of the tumor. Finally, the rats were sacrificed for observing whether there was metastasis.

[3] = system: N1-S1 rat hepatoma liver tumors; test: Therapeutic effect assessment, liver tumor direct injection, rats with liver tumors; type: in vivo; conditions: for Response / Survival time: individual rats, liver tumor direct injection 0.45 mg/kg once every week, twice in total; for Change of tumor size 4 weeks after injection: liver tumor direct injection
Source text: as §3, §4, §5
The rats with liver tumors were subjected to surgery. After the locations of the liver tumors were found, the tumors were directly injected with normal saline, an injection containing arsenic trioxide without neutron irradiation treatment (concentration: 1 mg/ml; animal injection dosage: 0.45 mg/kg), and the injection prepared in Example 1 which contained radioactive arsenic trioxide having subjected to neutron irradiation treatment (radiation activity range: 2.77˜3.25 mCi/ml; concentration: 1 mg/ml of concentration; and animal injection dosage: 0.45 mg/kg), respectively, once every week, twice in total.
as §6

[4] = system: N1-S1 rat hepatoma liver tumors; test: Therapeutic effect assessment, continuous tail vein injection, rats with liver tumors; type: in vivo; design: key to Response: Increase in size of tumor (In %) is classified as “Poor Response”; decrease in size of tumor within 0%-40% is classified as “Mild Response”; decrease in size of tumor to 50% or more or disappearance of tumor is classified as “Good Response.”; conditions: for Effect on the inhibition of tumor growth / Survival of the group in week 8: continuous tail vein injection; for Response / Survival time: individual rats, continuous tail vein injection 0.45 mg/kg for two weeks
Source text: as §3, §4, §5
The rats with liver tumors were given normal saline, an injection solution containing arsenic trioxide without neutron irradiation treatment (concentration: 1 mg/ml; animal injection dosage: 0.45 mg/kg), and the injection solution prepared in Example 1 which contained radioactive arsenic trioxide having subjected to neutron irradiation treatment (radioactivity range: 2.77˜3.25 mCi/ml; concentration: 1 mg/ml; and animal injection dosage: 0.45 mg/kg), respectively, via tail vein injection, and the injection was continued for two weeks.
Before injection, the size of the liver tumors was examined by ultrasonic scanning. Ultrasonic scanning was conducted in the first week, the second week, and the fifth week, respectively, after start of the injection so as to observe the change in size of the tumor. Finally, the rats were sacrificed for observing whether there was metastasis.

[5] = Radiation absorption dose in organs or tissues and tumors (MIRD method, MIRDOSE 3); type: in vivo, rats; conditions: for Radiation absorption dose, Lung: rats with liver tumors
Protocol: as §1, §2
Radioactive arsenic trioxide was injected respectively into the tail vein and hepatic artery of the rats by I.V. and I.H. The dosage was calculated using MIRD method, and the residence time in each of the organs and the tumors was calculated using Excel software. Finally, the radiation absorption dose in each of the organs or tissues and the tumors was calculated using MIROSE 3 software.

[6] = system: acute promyelocytic leukemia cell lines; conditions: cited from earlier work
[7] = system: acute promyelocytic leukemia; conditions: cited from earlier work
[8] = individual rats, hepatic artery single injection 0.45 mg/kg
[9] = individual rats, hepatic artery single injection 0.45 mg/kg, 0.45 mg/kg

O=[76As]O[76As]=O (stereo not shown) [Radioactive arsenic trioxide, radioactive arsenic trioxide]
Contents of radioactive arsenic trioxide in the heart, the lung, and the spleen ([1]; 0.45 mg/kg, hepatic artery and tail vein injection, hours 2-48 (FIG. 3)): 1˜3 % ID/g | Residual contents in all the organs or tissues ([1]; 48 hours after injection, IV and IH (FIG. 3)): dropped | Time of peak content of radioactive arsenic trioxide in the liver tumor ([1]; hepatic artery injection, 0.45 mg/kg (FIG. 2)): between hours 2 and 4 | Time after which contents in the liver tumors by the two routes reached identical equivalent values ([1]; hepatic artery vs tail vein injection (FIG. 2)): 16 h | Contents in the bladder and urine relative to other tested organs ([1]; hour 4 after injection via hepatic artery and tail vein): second only to that in the tumor | Therapeutic effect on the tumors [2]: complete disappearance of the tumors in some of the animals 2 weeks after injection | Response [2, 8]: Good (decrease in size of tumor to 50% or more or disappearance of tumor is classified as “Good Response.”) | Survival time [2, 8]: >42 days | Tumor Size After injection Week 2 [2, 9]: Disappeared | Tumor Size After injection Week 5 [2, 9]: Disappeared | Response [3]: Good (decrease in size of tumor to 50% or more or disappearance of tumor is classified as “Good Response.”) | Survival time [3]: >30 days | Change of tumor size 4 weeks after injection [3]: the tumors in all of the animals shrank in 4 weeks of injection | Effect on the inhibition of tumor growth [4]: most noticeable | Survival of the group in week 8 [4]: all alive in week 8 | Response [4]: Good (decrease in size of tumor to 50% or more or disappearance of tumor is classified as “Good Response.”) | Survival time [4]: >56 days | Radiation absorption dose, Intestine ([5]; IH (hepatic artery injection)): 0.23 mGy/MBq | Radiation absorption dose, Kidney ([5]; IH (hepatic artery injection)): 0.28 mGy/MBq | Radiation absorption dose, Liver ([5]; IH (hepatic artery injection)): 0.21 mGy/MBq | Radiation absorption dose, Muscle ([5]; IH (hepatic artery injection)): 0.12 mGy/MBq | Radiation absorption dose, Spleen ([5]; IH (hepatic artery injection)): 0.95 mGy/MBq | Radiation absorption dose, Tumor ([5]; IH (hepatic artery injection)): 21 mGy/MBq | Radiation absorption dose, Lung ([5]; IH (hepatic artery injection)): 0.56 mGy/MBq | Radiation absorption dose, Intestine ([5]; IV (tail vein injection)): 0.16 mGy/MBq | Radiation absorption dose, Kidney ([5]; IV (tail vein injection)): 0.25 mGy/MBq | Radiation absorption dose, Liver ([5]; IV (tail vein injection)): 0.13 mGy/MBq | Radiation absorption dose, Muscle ([5]; IV (tail vein injection)): 0.06 mGy/MBq | Radiation absorption dose, Spleen ([5]; IV (tail vein injection)): 0.76 mGy/MBq | Radiation absorption dose, Tumor ([5]; IV (tail vein injection)): 4.26 mGy/MBq | Radiation absorption dose, Lung ([5]; IV (tail vein injection)): 0.47 mGy/MBq

arsenic trioxide [reference compound]
Concentrations inducing cell differentiation ([6]; low concentrations): 0.1 to 0.5 µmol/L | Concentrations triggering apoptosis ([6]; relatively high concentrations): 0.5 to 2 µmol/L | Therapeutic effect on the tumors [2]: not satisfactory | Response [2, 9]: Mild (decrease in size of tumor within 0%-40% is classified as “Mild Response”) (2×) and Poor (2×) | Survival time [2, 9]: >42 day (2×) and 36 day and 39 day | Survival time [3]: >30 days | Response ([3]; 0.45 mg/kg): Mild (decrease in size of tumor within 0%-40% is classified as “Mild Response”) and Poor and Good (decrease in size of tumor to 50% or more or disappearance of tumor is classified as “Good Response.”) | Change of tumor size 4 weeks after injection [3]: slightly smaller than the size of the tumors 1 week after injection, while the tumors in some of the animals still grew | Side effects (gastrointestinal disturbance, facial edema and cardiac toxicity) ([7]; low-dose, 0.08 mg/kg daily for 28 days intravenously): reduced | complete remission rate ([7]; patients with relapsed acute promyelocytic leukemia, intravenously 0.08 mg/kg daily for 28 days): 80% | complete remission (CR) rate ([7]; patients with relapsed acute promyelocytic leukemia, intravenously 10 mg/d): 90% | Effect on the inhibition of tumor growth [4]: not significant | Survival of the group in week 8 [4]: still alive in week 8 | Response ([4]; 0.45 mg/kg): Poor (3×) and Mild (decrease in size of tumor within 0%-40% is classified as “Mild Response”) (2×) | Survival time ([4]; 0.45 mg/kg): 14 day (2×) and 42 day and 7 day and 40 day

From US7803350B2, “Radioactive arsenic-containing compounds and their uses in the treatment of tumors” (Institute of Nuclear Energy Research Rocaec, priority 2003, dated 2010)
